The values below come from patent US20260176320A1, “MODULATORS OF G-PROTEIN COUPLED RECEPTORS” (priority 2018, published 2026).

The Emax is the maximal effect, on the per cent scale that the assay sets.

What all share (type): cell-based
Test [1] has as its target T1, GLP-1R (Homo sapiens, UniProt P43220). In words: HitHunter cAMP assay (GLP-1R). The conditions noted are these: cAMP; for Emax: read-out: (Emax) GLP-1R. Summed up:
(§1)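 cAMP, luminescence read: agonist 22-pt 2× dilution in DMSO, duplicate, 30 min RT on 10,000 cells/well in 1×HBSS/10 mM HEPES/625 μM IBMX/0.2% BSA; anti-cAMP reagent 1 h RT dark, then O/N RT dark before read.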

In test [2] the target is T2, GIP-R (Homo sapiens, UniProt P48546).
T2 sequence (P48546 22-466): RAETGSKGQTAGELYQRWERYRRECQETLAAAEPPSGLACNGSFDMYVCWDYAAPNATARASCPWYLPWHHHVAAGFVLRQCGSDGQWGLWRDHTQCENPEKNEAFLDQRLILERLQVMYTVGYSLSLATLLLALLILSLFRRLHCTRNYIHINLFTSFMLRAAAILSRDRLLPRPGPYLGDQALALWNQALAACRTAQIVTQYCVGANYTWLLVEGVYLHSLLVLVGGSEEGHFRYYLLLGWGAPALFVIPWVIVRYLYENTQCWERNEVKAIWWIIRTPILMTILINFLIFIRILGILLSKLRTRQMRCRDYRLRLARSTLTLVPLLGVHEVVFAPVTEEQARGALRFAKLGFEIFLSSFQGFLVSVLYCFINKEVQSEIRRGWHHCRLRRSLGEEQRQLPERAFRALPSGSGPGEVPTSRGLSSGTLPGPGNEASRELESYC
In words: HitHunter cAMP assay (GIP-R). The conditions noted are these: cAMP; for Emax: read-out: (Emax) GIP-R. Summed up: as §1
On the technique in general: cAMP levels reflect the balance of adenylyl cyclase and phosphodiesterase activity.

Test [3] addresses T1, GLP-1R. In words: PathHunter β-arrestin assay. The method, boiled down: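 Luminescence read-out of β-arrestin recruitment (enzyme-fragment complementation detection, 3 h at room temperature in the dark) after 90 min agonist stimulation at 37 °C. Agonists tested as 22-point 2× serial dilutions in duplicate, in medium containing 0.2% BSA.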

Where two headings read alike, the source gives them in different places. Square brackets hold non-standard residues; d marks the D form. Peptide text beside a SMILES is read from it. * marks the point of attachment. X1 = O=C(CSCC(=O)*)NCCN1C(=O)c2ccccc2C1=O; X5 = O=C(CSCC(=O)*)NCCN1CCCC1=O; Aib = CC(C)(N)C(=O)O Where only a bound is given, the exact number is not on record here.

T1 sequence (P43220 24-463): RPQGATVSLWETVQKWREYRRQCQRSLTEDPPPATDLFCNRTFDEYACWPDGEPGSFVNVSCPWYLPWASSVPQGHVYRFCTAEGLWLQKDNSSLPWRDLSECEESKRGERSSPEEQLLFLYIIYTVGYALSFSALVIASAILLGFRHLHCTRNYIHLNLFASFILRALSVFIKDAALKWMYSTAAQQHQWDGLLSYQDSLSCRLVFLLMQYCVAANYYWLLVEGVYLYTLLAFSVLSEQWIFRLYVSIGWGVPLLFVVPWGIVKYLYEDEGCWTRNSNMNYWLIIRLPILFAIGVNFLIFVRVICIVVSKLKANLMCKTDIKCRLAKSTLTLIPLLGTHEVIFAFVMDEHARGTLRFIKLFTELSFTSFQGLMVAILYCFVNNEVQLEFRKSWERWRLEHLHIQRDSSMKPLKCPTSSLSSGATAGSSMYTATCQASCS

With `CCCCCCCCCCCCCCCC(=O)N[C@@H](CCC(=O)NCCCC[C@H](NC(=O)[C@H](CO)NC(=O)[C@@H]1CCCN1C(=O)[C@@H]1CCCN1C(=O)[C@@H]1CCCN1C(=O)[C@H](C)NC(=O)CNC(=O)[C@H](CO)NC(=O)[C@H](CO)NC(=O)[C@@H]1CCCN1C(=O)CNC(=O)CNC(=O)[C@H](C)NC(=O)[C@H](CC(C)C)NC(=O)[C@H](CC(C)C)NC(=O)[C@H](Cc1c[nH]c2ccccc12)NC(=O)[C@H](CC(N)=O)NC(=O)[C@@H](NC(=O)[C@H](Cc1ccccc1)NC(=O)[C@H](CCC(=O)O)NC(=O)C(C)(C)NC(=O)[C@H](C)NC(=O)[C@H](C)NC(=O)[C@H](CCC(N)=O)NC(=O)[C@H](CCCCN)NC(=O)[C@H](CC(=O)O)NC(=O)[C@H](CC(C)C)NC(=O)[C@H](Cc1ccc(O)cc1)NC(=O)[C@@H](NC(=O)[C@H](CO)NC(=O)[C@H](Cc1ccc(O)cc1)NC(=O)[C@H](CC(=O)O)NC(=O)[C@H](CO)NC(=O)[C@@H](NC(=O)[C@H](Cc1ccccc1)NC(=O)[C@@H](NC(=O)CNC(=O)[C@H](CCC(=O)O)NC(=O)CSCC(=O)NCCn1c(C)cccc1=O)[C@@H](C)O)[C@@H](C)O)[C@@H](C)CC)C(C)C)C(N)=O)C(=O)O` [Compound 240], the EC50 in test [1] (EC50 GLP-1R/nM, Table 3A) was 0.1 to 1 nM; in test [2] (EC50 GIP-R/nM, Table 3A), 1 to 10 nM; in test [3], above 1000 nM. Also, the values for the Emax in test [1] (Table 3A) and in test [2] (Table 3A) were 97% and 60%, respectively.

With `CC[C@H](C)[C@H](NC(=O)[C@H](CO)NC(=O)[C@H](Cc1ccc(O)cc1)NC(=O)[C@H](CC(=O)O)NC(=O)[C@H](CO)NC(=O)[C@@H](NC(=O)[C@H](Cc1ccccc1)NC(=O)[C@@H](NC(=O)CNC(=O)[C@H](CCC(=O)O)NC(=O)CSCC(=O)NCCN1C(=O)c2ccccc2C1=O)[C@@H](C)O)[C@@H](C)O)C(=O)N[C@@H](Cc1ccc(O)cc1)C(=O)N[C@@H](CC(C)C)C(=O)N[C@@H](CC(=O)O)C(=O)N[C@@H](CCCNC(=N)N)C(=O)N[C@@H](CCC(N)=O)C(=O)N[C@@H](C)C(=O)N[C@@H](C)C(=O)NC(C)(C)C(=O)N[C@@H](CCC(=O)O)C(=O)N[C@@H](Cc1ccccc1)C(=O)N[C@H](C(=O)N[C@@H](CC(N)=O)C(=O)N[C@@H](Cc1c[nH]c2ccccc12)C(=O)N[C@@H](CC(C)C)C(=O)N[C@@H](CC(C)C)C(=O)N[C@@H](C)C(=O)NCC(=O)NCC(=O)N1CCC[C@H]1C(=O)N[C@@H](CO)C(=O)N[C@@H](CO)C(=O)NCC(=O)N[C@@H](C)C(=O)N1CCC[C@H]1C(=O)N1CCC[C@H]1C(=O)N1CCC[C@H]1C(=O)N[C@@H](CO)C(N)=O)C(C)C` [Compound 190] (X1-EGTFTSDYSIYLDRQAA[Aib]EFVNWLLAGGPSSGAPPPS-NH2), the EC50 in test [1] (EC50 GLP-1R/nM, Table 3) was 1 to 10 nM; in test [1] (EC50 GLP-1R/nM, Table 3A), 1 to 10 nM; in test [2] (read-out: EC50 GIP-R/nM, Table 3) it was 0.1 to 10 nM; in test [2] (read-out: EC50 GIP-R/nM, Table 3A), 0.1 to 10 nM; in test [3], above 1000 nM. Also, the maximal effect (Emax) in test [1] (Table 3) was in the range of 97 to 119%; in test [1] (Table 3A), 97 to 119%; in test [2] (Table 3) it was 88 to 119%; in test [2] (Table 3A) it was 88 to 119%.

`CC[C@H](C)[C@H](NC(=O)[C@H](CO)NC(=O)[C@H](Cc1ccc(O)cc1)NC(=O)[C@H](CC(=O)O)NC(=O)[C@H](CO)NC(=O)[C@@H](NC(=O)[C@H](Cc1ccccc1)NC(=O)[C@@H](NC(=O)CNC(=O)[C@H](CCC(=O)O)NC(=O)CSCC(=O)NCCN1CCCC1=O)[C@@H](C)O)[C@@H](C)O)C(=O)N[C@@H](Cc1ccc(O)cc1)C(=O)N[C@@H](CC(C)C)C(=O)N[C@@H](CC(=O)O)C(=O)N[C@@H](CCCNC(=N)N)C(=O)N[C@@H](CCC(N)=O)C(=O)N[C@@H](C)C(=O)N[C@@H](C)C(=O)NC(C)(C)C(=O)N[C@@H](CCC(=O)O)C(=O)N[C@@H](Cc1ccccc1)C(=O)N[C@H](C(=O)N[C@@H](CC(N)=O)C(=O)N[C@@H](Cc1c[nH]c2ccccc12)C(=O)N[C@@H](CC(C)C)C(=O)N[C@@H](CC(C)C)C(=O)N[C@@H](C)C(=O)NCC(=O)NCC(=O)N1CCC[C@H]1C(=O)N[C@@H](CO)C(=O)N[C@@H](CO)C(=O)NCC(=O)N[C@@H](C)C(=O)N1CCC[C@H]1C(=O)N1CCC[C@H]1C(=O)N1CCC[C@H]1C(=O)N[C@@H](CO)C(N)=O)C(C)C` [Compound 189] (X5-EGTFTSDYSIYLDRQAA[Aib]EFVNWLLAGGPSSGAPPPS-NH2): the Emax in test [1] (Table 3) and in test [1] (Table 3A) was 94% throughout. Further, the EC50 is 1 to 10 nM in test [1] (Table 3, read-out: EC50 GLP-1R/nM); 1 to 10 nM in test [1] (Table 3A, read-out: EC50 GLP-1R/nM); above 1000 nM in test [2] (Table 3, read-out: EC50 GIP-R/nM); above 1000 nM in test [2] (Table 3A, read-out: EC50 GIP-R/nM); above 1000 nM in test [3] (PathHunter β-arrestin assay, read-out: β-arrestin activity EC50). Also, the maximum response (Emax) at 1 µM in test [2] (read-out: (Emax) GIP-R at 1 μM, Table 3, at 1 μM) was determined as 4.5%.

`CC[C@H](C)[C@H](NC(=O)[C@H](CO)NC(=O)[C@H](Cc1ccc(O)cc1)NC(=O)[C@H](CC(=O)O)NC(=O)[C@H](CO)NC(=O)[C@@H](NC(=O)[C@H](Cc1ccccc1)NC(=O)[C@@H](NC(=O)CNC(=O)[C@H](CCC(=O)O)NC(=O)CSCC(=O)NCCN1C(=O)c2ccc(C)cc2C1=O)[C@@H](C)O)[C@@H](C)O)C(=O)N[C@@H](Cc1ccc(O)cc1)C(=O)N[C@@H](CC(C)C)C(=O)N[C@@H](CC(=O)O)C(=O)N[C@@H](CCCCN)C(=O)N[C@@H](CCC(N)=O)C(=O)N[C@@H](C)C(=O)N[C@@H](C)C(=O)NC(C)(C)C(=O)N[C@@H](CCC(=O)O)C(=O)N[C@@H](Cc1ccccc1)C(=O)N[C@H](C(=O)N[C@@H](CC(N)=O)C(=O)N[C@@H](Cc1c[nH]c2ccccc12)C(=O)N[C@@H](CC(C)C)C(=O)N[C@@H](CC(C)C)C(=O)N[C@@H](C)C(=O)NCC(=O)NCC(=O)N1CCC[C@H]1C(=O)N[C@@H](CO)C(=O)N[C@@H](CO)C(=O)NCC(=O)N[C@@H](C)C(=O)N1CCC[C@H]1C(=O)N1CCC[C@H]1C(=O)N1CCC[C@H]1C(=O)N[C@@H](CO)C(=O)N[C@@H](CCCCN)C(N)=O)C(C)C` [Compound 156]: the EC50 in test [1] (EC50 GLP-1R/nM, Table 3) is 1 to 10 nM; in test [1] (EC50 GLP-1R/nM, Table 3A), 1 to 10 nM; in test [2] (EC50 GIP-R/nM, Table 3) it was below 0.1 nM; in test [2] (EC50 GIP-R/nM, Table 3A), below 0.1 nM; in test [3], above 1000 nM. Further, the Emax in test [1] (Table 3) is 95 to 100%; in test [1] (Table 3A), 95 to 100%; in test [2] (Table 3), 116 to 118%; in test [2] (Table 3A) it was 116 to 118%.

On to `CCCCCCCCCCCCCCCC(=O)N[C@@H](CCC(=O)NCCCC[C@H](NC(=O)[C@H](CO)NC(=O)[C@@H]1CCCN1C(=O)[C@@H]1CCCN1C(=O)[C@@H]1CCCN1C(=O)[C@H](C)NC(=O)CNC(=O)[C@H](CO)NC(=O)[C@H](CO)NC(=O)[C@@H]1CCCN1C(=O)CNC(=O)CNC(=O)[C@H](C)NC(=O)[C@H](CC(C)C)NC(=O)[C@H](CC(C)C)NC(=O)[C@H](Cc1c[nH]c2ccccc12)NC(=O)[C@H](CC(N)=O)NC(=O)[C@@H](NC(=O)[C@H](Cc1ccccc1)NC(=O)[C@H](CCC(=O)O)NC(=O)C(C)(C)NC(=O)[C@H](C)NC(=O)[C@H](C)NC(=O)[C@H](CCC(N)=O)NC(=O)[C@H](CCCCN)NC(=O)[C@H](CC(=O)O)NC(=O)[C@H](CC(C)C)NC(=O)[C@H](Cc1ccc(O)cc1)NC(=O)[C@@H](NC(=O)[C@H](CO)NC(=O)[C@H](Cc1ccc(O)cc1)NC(=O)[C@H](CC(=O)O)NC(=O)[C@H](CO)NC(=O)[C@@H](NC(=O)[C@H](Cc1ccccc1)NC(=O)[C@@H](NC(=O)CNC(=O)[C@H](CCC(=O)O)NC(=O)CSCC(=O)NCCN1C[C@@H](OC)CC1=O)[C@@H](C)O)[C@@H](C)O)[C@@H](C)CC)C(C)C)C(N)=O)C(=O)O` [Compound 22], for which the EC50 in test [1] (EC50 GLP-1R/nM, Table 3) was 0.1 to 1 nM; in test [1] (EC50 GLP-1R/nM, Table 3A), 0.1 to 1 nM; in test [2] (EC50 GIP-R/nM, Table 3), 0.1 to 1 nM; in test [2] (EC50 GIP-R/nM, Table 3A) it was 0.1 to 1 nM; in test [3] it was above 1000 nM. The Emax in test [1] (Table 3) came out at 90%; in test [1] (Table 3A), 90%; in test [2] (Table 3), 46%; in test [2] (Table 3A) it was 46%.
